Laboratory results as given in patent US8304419B2, “Chemical compounds” (priority 2007, dated 2012).
Structures can show the parent of a compound that is named as a salt.

Each compound was assayed on HIV wild type (WTRVA) (assay: HeLa cell assay, wild type virus (WTRVA)). Conditions: Human immunodeficiency virus 1, HeLa, HeLa cell assay; read-out: IC50 against WTRVA.
Type: cell-based, HIV-1
Design: scale not given here

| Compound | IC50 [nM] |
| --- | --- |
| COc1cc(C#N)cc(Oc2c(Cl)ccc(CNC(=O)c3[nH]c(N)nc3Cl)c2F)c1 [Example 366, 2-amino-4-chloro-N-[(4-chloro-3-{[3-cyano-5-(methyloxy)phenyl]oxy}-2-fluorophenyl)methyl]-1H-imidazole-5-carboxamide trifluoroacetate] | < 10 |
| CCc1ccc(CNC(=O)c2[nH]cnc2Cl)c(F)c1Oc1cc(Cl)cc(C#N)c1 [Example 250, 4-chloro-N-({3-[(3-chloro-5-cyanophenyl)oxy]-4-ethyl-2-fluorophenyl}methyl)-1H-imidazole-5-carboxamide] | < 10 |
| CCc1ccc(CNC(=O)c2[nH]c(C)nc2Cl)c(F)c1Oc1cc(Cl)cc(C#N)c1 [Example 249, 4-chloro-N-({3-[(3-chloro-5-cyanophenyl)oxy]-4-ethyl-2-fluorophenyl}methyl)-2-methyl-1H-imidazole-5-carboxamide] | < 10 |
| Cc1cc(C#N)cc(Oc2c(Cl)ccc(CNC(=O)c3[nH]c(C)nc3Br)c2F)c1 [Example 146, 4-bromo-N-({4-chloro-3-[(3-cyano-5-methylphenyl)oxy]-2-fluorophenyl}methyl)-2-methyl-1H-imidazole-5-carboxamide] | < 10 |
| Cc1nc(Cl)c(C(=O)NCc2ccc(C3CC3)c(Oc3cc(Cl)cc(C#N)c3)c2F)[nH]1 [Example 270, 4-Chloro-N-({3-[(3-chloro-5-cyanophenyl)oxy]-4-cyclopropyl-2-fluorophenyl}methyl)-2-methyl-1H-imidazole-5-carboxamide] | < 10 |
| N#Cc1cc(Cl)cc(Oc2c(Br)ccc(CNC(=O)c3[nH]cnc3Cl)c2F)c1 [Example 378, N-({4-bromo-3-[(3-chloro-5-cyanophenyl)oxy]-2-fluorophenyl}methyl)-4-chloro-1H-imidazole-5-carboxamide] | < 10 |
| N#Cc1cc(Cl)cc(Oc2c(Cl)ccc(CNC(=O)c3[nH]c(N)nc3Br)c2F)c1 [Example 235, 2-amino-4-bromo-N-({4-chloro-3-[(3-chloro-5-cyanophenyl)oxy]-2-fluorophenyl}methyl)-1H-imidazole-5-carboxamide trifluoroacetate] | < 10 |
| CCc1ccc(CNC(=O)c2[nH]c(N)nc2Cl)c(F)c1Oc1cc(Cl)cc(C#N)c1 [Example 251, 2-amino-4-chloro-N-({3-[(3-chloro-5-cyanophenyl)oxy]-4-ethyl-2-fluorophenyl}methyl)-1H-imidazole-5-carboxamide] | < 10 |
| CN(C)Cc1cc(C#N)cc(Oc2c(Cl)ccc(CNC(=O)c3[nH]cnc3Cl)c2F)c1 [Example 311, 4-chloro-N-{[4-chloro-3-({3-cyano-5-[(dimethylamino)methyl]phenyl}oxy)-2-fluorophenyl]methyl}-1H-imidazole-5-carboxamide trifluoroacetate] | < 10 |
| Cc1cc(C#N)cc(Oc2c(Br)ccc(CNC(=O)c3[nH]c(N)nc3Cl)c2F)c1 [Example 240, 2-amino-N-({4-bromo-3-[(3-cyano-5-methylphenyl)oxy]-2-fluorophenyl}methyl)-4-chloro-1H-imidazole-5-carboxamide trifluoroacetate] | < 10 |
| N#Cc1cc(Cl)cc(Oc2c(Cl)ccc(CNC(=O)c3[nH]cnc3Cl)c2F)c1Cl [Example 144, 4-chloro-N-({4-chloro-3-[(2,5-dichloro-3-cyanophenyl)oxy]-2-fluorophenyl}methyl)-1H-imidazole-5-carboxamide] | < 10 |
| N#Cc1cc(Cl)cc(Oc2c(Br)ccc(CNC(=O)c3[nH]c(N)nc3Br)c2F)c1 [Example 237, 2-amino-4-bromo-N-({4-bromo-3-[(3-chloro-5-cyanophenyl)oxy]-2-fluorophenyl}methyl)-1H-imidazole-5-carboxamide trifluoroacetate] | < 10 |

Same assay, conditions: Human immunodeficiency virus 1, HeLa, HeLa-CD4-LTR-β-gal cells, wild type virus; read-out: WTRVA activity level

| Compound | IC50 [nM] |
| --- | --- |
| N#Cc1cc(Cl)cc(Oc2c(Cl)ccc(CNC(=O)c3cc4ccc(N)cc4[nH]3)c2F)c1 [Example 123, 6-amino-N-({4-chloro-3-[(3-chloro-5-cyanophenyl)oxy]-2-fluorophenyl}methyl)-1H-indole-2-carboxamide trifluoroacetate] | < 10 |
| CS(=O)(=O)c1cc(F)cc2cc(C(=O)NCc3ccc(Cl)c(Oc4cc(Cl)cc(C#N)c4)c3F)[nH]c12 [Example 33, N-({4-chloro-3-[(3-chloro-5-cyanophenyl)oxy]-2-fluorophenyl}methyl)-5-fluoro-7-(methylsulfonyl)-1H-indole-2-carboxamide] | 10 to 1000 |
| COc1ccc2[nH]c(C(=O)NCc3ccc(Cl)c(Oc4cc(Cl)cc(C#N)c4)c3F)c(NC(C)=O)c2c1 [Example 56, 3-(acetylamino)-N-({4-chloro-3-[(3-chloro-5-cyanophenyl)oxy]-2-fluorophenyl}methyl)-5-(methyloxy)-1H-indole-2-carboxamide trifluoroacetate] | 10 to 1000 |
| CS(=O)(=O)c1ccc(C(=O)NCc2ccc(Cl)c(Oc3cc(Cl)cc(C#N)c3)c2F)c(Cl)c1 [Example 16, 2-chloro-N-({4-chloro-3-[(3-chloro-5-cyanophenyl)oxy]-2-fluorophenyl}methyl)-4-(methylsulfonyl)benzamide] | 10 to 1000 |
| Cn1ccnc1C(=O)NCc1ccc(Cl)c(Oc2cc(Cl)cc(C#N)c2)c1F [Example 72, N-({4-chloro-3-[(3-chloro-5-cyanophenyl)oxy]-2-fluorophenyl}methyl)-1-methyl-1H-imidazole-2-carboxamide trifluoroacetate] | 10 to 1000 |
| CN(Cc1ccc(Cl)c(Oc2cc(Cl)cc(C#N)c2)c1F)C(=O)c1[nH]cnc1Cl [Example 132, 4-chloro-N-({4-chloro-3-[(3-chloro-5-cyanophenyl)oxy]-2-fluorophenyl}methyl)-N-methyl-1′-imidazole-5-carboxamide trifluoroacetate] | < 10 |
| N#Cc1cc(Cl)cc(Oc2c(Cl)ccc(CNC(=O)c3cc([N+](=O)[O-])c[nH]3)c2F)c1 [Example 70, N-({4-chloro-3-[(3-chloro-5-cyanophenyl)oxy]-2-fluorophenyl}methyl)-4-nitro-1H-pyrrole-2-carboxamide trifluoroacetate] | < 10 |
| N#Cc1cc(Cl)cc(Oc2c(Cl)ccc(CNC(=O)c3[nH]c4cc(OCCO)ccc4c3Br)c2F)c1 [Example 141, 3-Bromo-N-({4-chloro-3-[(3-chloro-5-cyanophenyl)oxy]-2-fluorophenyl}methyl)-6-[(2-hydroxyethyl)oxy]-1H-indole-2-carboxamide] | < 10 |
| N#Cc1cc(Cl)cc(Oc2c(Cl)ccc(CNC(=O)c3cc4ccc([N+](=O)[O-])cc4[nH]3)c2F)c1 [Example 31, N-({4-chloro-3-[(3-chloro-5-cyanophenyl)oxy]-2-fluorophenyl}methyl)-6-nitro-1H-indole-2-carboxamide] | 10 to 1000 |
| CCCc1nc(Cl)c(C(=O)NCc2ccc(Cl)c(Oc3cc(Cl)cc(C#N)c3)c2F)[nH]1 [Example 139, 4-chloro-N-({4-chloro-3-[(3-chloro-5-cyanophenyl)oxy]-2-fluorophenyl}methyl)-2-propyl-1H-imidazole-5-carboxamide] | < 10 |
| N#Cc1cc(Cl)cc(Oc2cc(CNC(=O)c3cc4cc([N+](=O)[O-])ccc4[nH]3)ccc2Cl)c1 [Example 9, N-({4-chloro-3-[(3-chloro-5-cyanophenyl)oxy]phenyl}methyl)-5-nitro-1H-indole-2-carboxamide] | > 1000 |
| COC(=O)c1ccc(C(=O)NCc2ccc(Cl)c(Oc3cc(Cl)cc(C#N)c3)c2F)cc1 [Example 15, Methyl 4-{[({4-chloro-3-[(3-chloro-5-cyanophenyl)oxy]-2-fluorophenyl}methyl)amino]carbonyl}benzoate] | 10 to 1000 |
| CS(=O)(=O)c1ccc(C(=O)NCc2ccc(Cl)c(Oc3cc(Cl)cc(C#N)c3)c2F)cc1 [Example 92, N-({4-chloro-3-[(3-chloro-5-cyanophenyl)oxy]-2-fluorophenyl}methyl)-4-(methylsulfonyl)benzamide] | 10 to 1000 |
| Cc1cc(Br)cc2cc(C(=O)NCc3ccc(Cl)c(Oc4cc(Cl)cc(C#N)c4)c3F)[nH]c12 [Example 30, 5-bromo-N-({4-chloro-3-[(3-chloro-5-cyanophenyl)oxy]-2-fluorophenyl}methyl)-7-methyl-1H-indole-2-carboxamide] | 10 to 1000 |
| CCN(CC)S(=O)(=O)c1c[nH]c(C(=O)NCc2ccc(Cl)c(Oc3cc(Cl)cc(C#N)c3)c2F)c1 [Example 76, N-({4-chloro-3-[(3-chloro-5-cyanophenyl)oxy]-2-fluorophenyl}methyl)-4-[(diethylamino)sulfonyl]-1H-pyrrole-2-carboxamide trifluoroacetate] | 10 to 1000 |
| CC(O)CCOc1ccc2[nH]c(C(=O)NCc3ccc(Cl)c(Oc4cc(Cl)cc(C#N)c4)c3F)cc2c1 (centres unmarked) [Example 106, N-({4-chloro-3-[(3-chloro-5-cyanophenyl)oxy]-2-fluorophenyl}methyl)-5-[(3-hydroxybutyl)oxy]-1H-indole-2-carboxamide] | < 10 |
| N#Cc1cc(Cl)cc(Oc2c(Cl)ccc(CNC(=O)c3cc4cccc([N+](=O)[O-])c4[nH]3)c2F)c1 [Example 37, N-({4-chloro-3-[(3-chloro-5-cyanophenyl)oxy]-2-fluorophenyl}methyl)-7-nitro-1H-indole-2-carboxamide] | 10 to 1000 |
| N#Cc1cc(Cl)cc(Oc2c(Cl)ccc(CNC(=O)c3[nH]cnc3[N+](=O)[O-])c2F)c1 [Example 68, N-({4-chloro-3-[(3-chloro-5-cyanophenyl)oxy]-2-fluorophenyl}methyl)-4-nitro-1H-imidazole-5-carboxamide trifluoroacetate] | < 10 |
| N#Cc1cc(Cl)cc(Oc2c(Cl)ccc(CNC(=O)c3csnn3)c2F)c1 [Example 90, N-({4-chloro-3-[(3-chloro-5-cyanophenyl)oxy]-2-fluorophenyl}methyl)-1,2,3-thiadiazole-4-carboxamide] | < 10 |
| N#Cc1cc(Cl)cc(Oc2c(Cl)ccc(CNC(=O)c3cc4ccc(O)cc4[nH]3)c2F)c1 [Example 36, N-({4-chloro-3-[(3-chloro-5-cyanophenyl)oxy]-2-fluorophenyl}methyl)-6-hydroxy-1H-indole-2-carboxamide] | < 10 |
